Measurements reported in patent publication US20080070987A1, “META-XYLYLENEDIAMINE VANADATE SALTS” (priority 2006, published 2008).

Test system: streptozotocin-induced diabetic rats
Assay: Chronic subcutaneous (osmotic minipump) treatment of streptozotocin-induced diabetic rats, glycemia
Assay type: in vivo, rat
Settings: for effect on glycemia, in words: streptozotocin (45 mg/kg) diabetic rats, 2.5 μmol/kg/day subcutaneous by osmotic minipumps, about two weeks
Method: FIG. 3 is a graphical illustration of hexaquis(benzylammonium) decavanadate chronic treatment effect on glycemia of diabetic rats by streptozotocin. In FIG. 3, [G] corresponds to the blood concentration of glucose (expressed in mg/dl) measured at different days of treatment (t/d). Diabetic rats were treated, by mini-osmotic pumps, with buffered solution (black diamonds), with hexaquis(benzylammonium) decavanadate (2.5 μmol/kg/day) (black squares) or with identical dose of sodium decavanadate (white circles).
The effect of chronic administration of hexaquis(benzylammonium) decavanadate on glycemia from diabetic rats was determined. Diabetes was induced in rats by intravenous administration of streptozotocin, which destroys the β-pancreatic cells that produce insulin.
Male Wistar rats weighting 180-220 g were purchased from Harlan (Interfauna Ibérica S.A., Spain). Diabetes was induced by a single intraperitoneal injection of a freshly prepared solution of streptozotocin (in some studies the dose was 45 mg/kg body weight and in some others 100 mg/kg body weight dissolved in 50 mM citrate buffer, pH 4.5). Only diabetic animals with glycemia above 300 mg/dl were used. The animals were housed in animal quarters at 22° C. with a 12 h light/12 h dark cycle and were fed ad libitum. All procedures used were approved by the animal ethical committee of the University of Barcelona, Spain. Male mice C57 BL/Ks bearing the db/db mutation (Jackson Laboratories, Bar Harbor, Me.) were purchased from Harlan France (Gannat, France). C57BL/6J male mice were assigned for 16 weeks to very high-fat diet containing (in kcal): 72% from fat, 28% from proteins and <1% from carbohydrates (Burcelin et al., 2002, Am. J. Physiol. Endocrinol. Metab 282: E834-E842).
Osmotic minipumps delivering B6V10 (2.5 μmol/kg body wt/day) or decavanadate (2.5 μmol/kg body wt/day) were implanted subcutaneously in diabetic rats anaesthetised by ketamine hydrochloride (95 mg/kg) and xylasine (10 mg/kg). […] Glycemia was measured on arterio-venous blood collected from the tail vessels at 09:00 am for two weeks, before the administration of vanadate. Insulin concentrations were determined before and after treatment. In another set of experiments, B6V10 was orally administered at a single dose of 5 μmol/kg/day during the first week and 10 μmol/kg/day during 2 additional weeks by gastric gavage. A control group received the corresponding decavanadate salt in the absence of benzylamine. At the end of the treatment, animals were sacrificed and the liver, fat pad, heart and lung were kept at −80° C. and the plasma at −20° C. until their use for in vitro analysis.
In glucose tolerance tests and in chronic treatments, circulating glucose concentrations were determined by a rapid glucose analyser (Accutrend® Sensor Comfort, Roche, Basel. Switzerland). Plasma insulin (IRI) concentration was determined by ELISA method using a kit obtained from Crystal Chem. Inc. (Downers Grove, Ill.). Plasma triglycerides (Biosystems, Barcelona, Spain) and NEFAS (Wako Chemicals, Neuss, Germany) were determined with standard […] methods.
Chronic in vivo efficacy of B6V10 was evaluated in streptozotocin-induced diabetic rats and in db/db mice. Streptozotocin-induced (45 mg/kg) diabetic rats were subcutaneously treated with hexaquis(benzylammonium) decavanadate (2.5 μmol/kg) (B6V10, solid squares, FIG. 8A) or with decavanadate (2.5 μmol/kg) (V10, open circles, FIG. 8A) delivered subcutaneously by osmotic minipumps implanted in the dorsal region. Diabetic rats were also sham-operated (untreated, solid diamonds, FIG. 8A). […] These experiments were repeated using an oral administration protocol. Streptozotocin-induced (45 mg/kg) diabetic rats were orally treated with hexaquis(benzylammonium) decavanadate (5 μmol/kg from day 0 to day 7 and 10 μmol/kg/day from day 7 to day 17) (B6V10, solid squares, FIG. 8B) or received decavanadate (10 μmol/kg) (V10, open circles, FIG. 8B). […]

| Substance | effect on glycemia, in words | effect on glycemia, in words (listed as sodium decavanadate) | time at which reduction of hyperglycemia was detected (2.5 μmol/kg/day subcutaneous minipumps) | glucose transport in adipocytes isolated from treated rats (adipocytes isolated at fourteen days of treatment) | effect on glycemia, in words (listed as hexaquis(benzylammonium) decavanadate) |
| --- | --- | --- | --- | --- | --- |
| sodium decavanadate [Example V10, reference compound] | did not alter glycemia | did not modify substantially its glycemia |  |  |  |
| hexaquis(benzylammonium) decavanadate [Example B6V10] | significant correction of hyperglycemia |  | after only four days of treatment | increased glucose transport under basal conditions equivalent to that seen in the presence of insulin | rapid reduction of the hyperglycemia |
